In PubChem BioAssay (NCI):
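In this assay, cells in 96-well plates receive the compound at five concentrations for 48 hours. Endpoints are linearly interpolated between the surrounding concentrations. Definition used: TGI = concentration required for complete inhibition of growth.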

What was measured:
Experiment in all cases: inhibition of tumour cell growth, NCI panel, 48 h
SNB-75 CNS = tested on: SNB-75 CNS
HS 578T breast = tested on: HS 578T breast
UACC-257 melanoma = tested on: UACC-257 melanoma
HOP-92 NSCLC = tested on: HOP-92 NSCLC
MCF7 breast = tested on: MCF7 breast
T-47D breast = tested on: T-47D breast
SK-MEL-2 melanoma = tested on: SK-MEL-2 melanoma
IGROV1 ovarian = tested on: IGROV1 ovarian
OVCAR-8 ovarian = tested on: OVCAR-8 ovarian
SK-MEL-5 melanoma = tested on: SK-MEL-5 melanoma
SF-539 CNS = tested on: SF-539 CNS
SNB-19 CNS = tested on: SNB-19 CNS
A549 NSCLC = tested on: A549 NSCLC
SF-295 CNS = tested on: SF-295 CNS
UO-31 renal = tested on: UO-31 renal
NCI/ADR-RES ovarian = tested on: NCI/ADR-RES ovarian
SN12C renal = tested on: SN12C renal
EKVX NSCLC = tested on: EKVX NSCLC
RXF 393 renal = tested on: RXF 393 renal
SR leukemia = tested on: SR leukemia

Compound | TGI (SNB-75 CNS) | TGI (HS 578T breast) | TGI (UACC-257 melanoma) | TGI (HOP-92 NSCLC) | TGI (MCF7 breast) | TGI (T-47D breast) | TGI (SK-MEL-2 melanoma) | TGI (IGROV1 ovarian) | TGI (OVCAR-8 ovarian) | TGI (SK-MEL-5 melanoma) | TGI (SF-539 CNS) | TGI (SNB-19 CNS) | TGI (A549 NSCLC) | TGI (SF-295 CNS) | TGI (UO-31 renal) | TGI (NCI/ADR-RES ovarian) | TGI (SN12C renal) | TGI (EKVX NSCLC) | TGI (RXF 393 renal) | TGI (SR leukemia)
CC(=O)N(CN1C(=O)CCC1C(=O)O)c1ccc(C)cc1 (stereo not given) | > 100 µM | > 100 µM | > 100 µM | > 100 µM | > 100 µM | > 100 µM | > 100 µM | > 100 µM | > 100 µM | > 100 µM | > 100 µM | > 100 µM | > 100 µM | > 100 µM | > 100 µM | > 100 µM | > 100 µM | > 100 µM | – | –
CCCCC1CCCCCCc2[nH]c(/C=C3\N=C(c4ccc[nH]4)C=C3OC)cc21 (stereo not given) | 0.638 µM | 1.62 µM | 2.73 µM | 0.42 µM | 1.11 µM | 2.06 µM | < 0.0237 µM | 1.29 µM | 1.33 µM | 0.107 µM | 1.13 µM | 8.65 µM | 0.0354 µM | 1.17 µM | 0.071 µM | 0.806 µM | 1.32 µM | 1.73 µM | 1.11 µM | –
CC(=O)Oc1c(C)cc2c(c1C)C(C)(C)CN2C(=O)C(C)(C)C | 31 µM | > 100 µM | > 100 µM | 74.4 µM | > 100 µM | 96.2 µM | > 100 µM | > 100 µM | > 100 µM | > 100 µM | > 100 µM | > 100 µM | > 100 µM | > 100 µM | > 100 µM | > 100 µM | > 100 µM | > 100 µM | > 100 µM | –
O=C(CC(C(=O)c1cccs1)c1ccsc1)c1ccc(Cl)cc1 (stereo not given) | > 100 µM | > 100 µM | > 100 µM | – | > 100 µM | > 100 µM | > 100 µM | > 100 µM | > 100 µM | > 100 µM | > 100 µM | > 100 µM | > 100 µM | > 100 µM | > 100 µM | > 100 µM | > 100 µM | > 100 µM | – | > 100 µM
COc1cccc([C@@H]2C/C(=N\NC(=O)C(=O)N[C@@H](C)c3ccccc3)c3cc4c(cc3N2)OCO4)c1 | > 100 µM | > 100 µM | > 100 µM | > 100 µM | > 100 µM | > 100 µM | > 100 µM | – | – | 65.3 µM | > 100 µM | > 100 µM | > 100 µM | > 100 µM | > 100 µM | > 100 µM | > 100 µM | > 100 µM | > 100 µM | –
Cc1ccc2c(=O)cc(-c3cc4ccccc4s3)[nH]c2n1 | 67.6 µM | > 100 µM | > 100 µM | – | > 100 µM | 48 µM | > 100 µM | > 100 µM | > 100 µM | > 100 µM | – | > 100 µM | > 100 µM | > 100 µM | 0.17 µM | > 100 µM | > 100 µM | > 100 µM | 97.2 µM | –
Nc1nc(N)c2c(CCc3ccc(C(=O)N[C@@H](CCC(=O)O)C(=O)O)cc3)ccnc2n1 | > 100 µM | > 100 µM | > 100 µM | > 100 µM | – | > 100 µM | > 100 µM | > 100 µM | > 100 µM | > 100 µM | > 100 µM | > 100 µM | > 100 µM | > 100 µM | > 100 µM | > 100 µM | > 100 µM | > 100 µM | > 100 µM | > 100 µM
CCC(C#N)NCc1ccc(CNC(C#N)CC)cc1 (stereo not given) | – | > 100 µM | > 100 µM | > 100 µM | > 100 µM | > 100 µM | > 100 µM | > 100 µM | > 100 µM | > 100 µM | > 100 µM | > 100 µM | > 100 µM | > 100 µM | > 100 µM | > 100 µM | > 100 µM | > 100 µM | > 100 µM | –
Cc1cccc(-c2cccc(COCc3cccc(-c4cccc(CO)n4)n3)n2)n1 | > 50 µM | > 50 µM | > 50 µM | > 50 µM | > 50 µM | > 50 µM | > 50 µM | > 50 µM | > 50 µM | > 50 µM | > 50 µM | > 50 µM | > 50 µM | > 5 µM | > 50 µM | > 50 µM | > 50 µM | > 50 µM | – | > 50 µM
O=C1CCN=C(NC(=O)C(F)(F)F)N1CCc1c[nH]c2ccccc12 | – | > 100 µM | > 100 µM | > 100 µM | > 100 µM | > 100 µM | > 100 µM | > 100 µM | > 100 µM | > 100 µM | > 100 µM | > 100 µM | > 100 µM | > 100 µM | > 100 µM | > 100 µM | > 100 µM | > 100 µM | > 100 µM | –
Cc1cc2nn(C3CCCCO3)nc2cc1C (stereo not given) | > 100 µM | > 100 µM | > 100 µM | – | > 100 µM | > 100 µM | > 100 µM | > 100 µM | > 100 µM | > 100 µM | > 100 µM | > 100 µM | > 100 µM | > 100 µM | > 100 µM | > 100 µM | > 100 µM | > 100 µM | > 100 µM | > 100 µM
Clc1ccc(C2ON=C(c3ccccc3)N2C23CC4CC(CC(C4)C2)C3)cc1Cl (stereo not given) | > 10 µM | > 10 µM | > 10 µM | > 10 µM | > 10 µM | > 10 µM | > 10 µM | > 10 µM | > 10 µM | > 10 µM | > 10 µM | > 10 µM | > 10 µM | > 10 µM | > 10 µM | > 10 µM | > 10 µM | > 10 µM | > 10 µM | –
Cn1cc(S(=O)(=O)NC(=O)Nc2ccc(Cl)cc2)c(=O)c2ccc(Cl)cc21 | > 100 µM | > 100 µM | > 100 µM | – | > 100 µM | > 100 µM | > 100 µM | > 100 µM | > 100 µM | > 100 µM | > 100 µM | > 100 µM | > 100 µM | > 100 µM | > 100 µM | > 100 µM | > 100 µM | > 100 µM | > 100 µM | > 100 µM
CCOC(=O)CCC(NC(=O)C(CCC(=O)OCC)NC(=O)C(Cc1ccc([N+](=O)[O-])cc1)NC(C)=O)C(=O)NNC(=O)OC(C)(C)C (stereo not given) | > 100 µM | > 100 µM | > 100 µM | > 100 µM | > 100 µM | > 100 µM | > 100 µM | > 100 µM | > 100 µM | > 100 µM | – | > 100 µM | > 100 µM | – | > 100 µM | – | > 100 µM | > 100 µM | 32.9 µM | –
Cc1ccc(N/C(=C(/C(Cl)=C(Cl)Cl)[N+](=O)[O-])n2nnc3ccccc32)cc1 | 35.4 µM | 47.1 µM | 62.7 µM | – | > 100 µM | 52.5 µM | 35.5 µM | – | 38 µM | – | 31.3 µM | 33.9 µM | 37.3 µM | 36.7 µM | 30.2 µM | 69.5 µM | 43.7 µM | 39.5 µM | – | –
COc1cc2c(NCCN(C)C)nc3c4cc5c(cc4ccc3c2cc1OC)OCO5 | 5.39 µM | 12.4 µM | 7.98 µM | 8.77 µM | 6.07 µM | 11.5 µM | 9.94 µM | 5.82 µM | 6.97 µM | 5.87 µM | 7.73 µM | 7.15 µM | 6.67 µM | 5.7 µM | 7.05 µM | 8.31 µM | 8.17 µM | 8.25 µM | 7.3 µM | –
CC(=O)O[C@H]1C[C@H]2[C@@H]([C@H](OC(C)=O)C[C@@H]3CC4(CC[C@@]32C)OOC2(CCCCC2)OO4)[C@@H]2CC[C@H]([C@H](C)CCC(N)=O)[C@@]12C | 4.89 µM | 19.7 µM | 19.9 µM | – | 9.29 µM | 3.84 µM | 4.48 µM | 0.474 µM | 9.87 µM | 5.24 µM | 10.7 µM | 20.1 µM | 2.93 µM | 9.66 µM | 0.193 µM | 4.95 µM | 5.5 µM | 3.23 µM | 10.2 µM | 1.88 µM
Cc1nnc(N2C(=O)C(=Cc3ccc(Cl)cc3)N=C2c2ccc(Cl)cc2)nc1/C=C\c1ccc(N(C)C)cc1 | > 100 µM | > 100 µM | > 100 µM | > 100 µM | > 100 µM | > 100 µM | > 100 µM | > 100 µM | > 100 µM | > 100 µM | – | > 100 µM | > 100 µM | > 100 µM | > 100 µM | > 100 µM | > 100 µM | > 100 µM | > 100 µM | –
c1cc2c(cc1NC1=NCCO1)CCCC2 | 35.3 µM | 23 µM | > 28.1 µM | 19.3 µM | 41.5 µM | > 88.7 µM | 11.4 µM | 23.5 µM | 12.5 µM | 9.17 µM | 6.25 µM | > 84.2 µM | 39.9 µM | 25.6 µM | 51.8 µM | 8.84 µM | 36.6 µM | 47 µM | 14.2 µM | –
